# Counter-ions that a name gives are not always drawn. Peptide text beside a SMILES is read from it.
# Legend:
# [1] = Preliminary test administration of the peptide; format: in vivo, human; details: 10 mg of the peptide subcutaneously before first vaccine administration, monitoring 30 minutes, all cases
# Protocol: For the purpose of avoiding unanticipated adverse events, such as anaphylactic shock, 10 mg of the peptide is subcutaneously administered as a preliminary test administration before the first vaccine administration to a site other than the site of the actual administration, and monitoring is carried out for 30 minutes. If a Grade 3 or higher local reaction or systemic adverse event could not be observed, the actual administration was carried out.
# [2] = test system: unresectable pancreatic cancer; details: cited from earlier work
# [3] = standard therapy against unresectable pancreatic cancer
Structure (SMILES),local adverse event and systemic adverse event [1],"Evident tumor reducing effect (Objective Response) ([2]; gemcitabine alone, data obtained so far)","Disease control rate (SD or higher) ([2]; gemcitabine alone, data obtained so far, listed as GEM alone)","median survival period [2, 3]","one-year survival rate [2, 3]"
"CC[C@H](C)[C@H](NC(=O)[C@H](CCCNC(=N)N)NC(=O)[C@H](CC(N)=O)NC(=O)CNC(=O)[C@H](CC(=O)O)NC(=O)[C@@H]1CCCN1C(=O)[C@@H](NC(=O)[C@H](Cc1ccccc1)NC(=O)[C@@H](N)CCCNC(=N)N)C(C)C)C(=O)O [VEGFR2-169, RFVPDGNRI] (H-RFVPDGNRI-OH)",not observed in any of the cases,–,–,–,–
"Nc1ccn([C@@H]2O[C@H](CO)[C@@H](O)C2(F)F)c(=O)n1 [gemcitabine, 2′-deoxy-2′,2′-difluorocytidine monohydrochloride (b-isomer)]",–,10%,45-48%,5.7 months,18%

# Reference: patent US8703713B2, “Combination therapy for pancreatic cancer using an antigenic peptide and chemotherapeutic agent” (Onco Therapy Science, Inc., priority 2007, dated 2014)
